According to patent US11077167B2, “Agent for promoting skeletal muscle injury repair” (Osaka University, priority 2017, dated 2021):

Assays:
[1] = tested on: Human skeletal muscle myoblasts (HSMMs); assay: Cell proliferative capacity (WST-1 assay); format: cell-based; details: SV peptide 20 ng/mL
Experimental: Human skeletal muscle myoblasts (HSMMs) were purchased from Lonza and used. The medium used for HSMM culture was the supplier's recommended medium (Skeletal Muscle Growth Media-2 supplemented with SingleQuots Kit).
Human skeletal muscle satellite cells and human skeletal muscle myoblasts were separately seeded at 1.0×10^4 cells/mL in each well of non-treated polystyrene 96-well cell culture plates (Falcon). The SV peptide (20 ng/mL, SV group), the random SV (20 ng/mL, random SV group), or PBS (PBS group) was added to the medium. The plates were cultured at 37° C. in a 5% CO2 atmosphere. After 0, 12, 24, 48, and 72 hours, cell proliferation was assessed using Premix WST-1 Cell Proliferation Assay System (Takara Bio, Japan).

[2] = tested on: muscle injury model rats (incised masseter muscles on both sides); assay: Electrophysiological experiment (masseter EMG), Example 2; format: in vivo, Jcl:SD rats
Experimental: Incisions were made in masseter muscles on both sides in Jcl:SD rats (10 weeks old) under anesthesia in the same manner as in Example 1. Immediately after muscle incision, 1 mL each of the SV peptide (20 ng/mL) or 1 mL each of PBS was intramuscularly administered into several sites surrounding the cut surfaces. The incision on each side was made along a straight line connecting the lateral angle of the eye and the mandibular angle, extending in depth from the fascia on the skin side to the lateral periosteum on the mandibular ramus. The cut surfaces were subjected to electrocoagulation with an electric scalpel for the arrest of bleeding (see FIG. 1). […]
In the same manner as in Example 1, bipolar needle electrodes were retained in the masseter muscles on both sides, and myogenic potential signals received through connectors fixed to both sides of the parietal bone were monitored. EMG data were recorded at postoperative weeks 1, 2, 4, 6, and 8.
The integral of bursts in the left (administration side) masseter muscle in the SV group or the PBS group was calculated as a measure of muscle activity and represented in FIG. 9 as a relative value compared to the 1-week postoperative value, which was assumed as 1. […]

[3] = tested on: muscle injury model rats (incised masseter muscles on both sides); assay: In vivo skeletal muscle forming capability (HE, MyoD, myogenin staining at postoperative week 1), Example 4; parameters: species or system Jcl:SD rats
Experimental: In the same manner as in Example 2, incisions were made in masseter muscles on both sides in Jcl:SD rats (10 weeks old) under anesthesia, and immediately after that, the rats were subjected to administration of 1 mL of the SV peptide (20 ng/mL) or 1 mL of PBS into the incised left masseter muscle without administration into the incised right masseter muscle. The two groups were called “SV group” and “PBS group”. Each rat was euthanized at postoperative week 1, and the masseter muscles on both sides were excised. The masseter muscles were embedded in paraffin and transversally sliced into histological sections by the usual method. The sections were subjected to HE staining, immunostaining with an anti-MyoD antibody and immunostaining with an anti-myogenin antibody. The anti-MyoD antibody used was an anti-mouse MyoD antibody (Abcam), and the anti-myogenin antibody used was an anti-mouse myogenin antibody (Abcam). A biotin-labeled anti-rabbit IgG antibody (DAKO) was used as a secondary antibody.
The area of granulation tissue formed on the cut surfaces was measured on the HE-staining specimens using the image-analysis software ImageJ (NIH, USA). The granulation tissue area ratios in the SV group and the PBS group were separately calculated using the following formula. […]
(§1) Images of the MyoD-immunostained specimens were taken with a digital camera mounted on a microscope, and the number of MyoD-positive nuclei in the muscle tissue area extending 2.5 mm on each side of the muscle incision site was counted. The MyoD-positive ratios in the SV group and the PBS group were separately calculated using the following formula. […]
as §1, with “myogenin-immunostained” for “MyoD-immunostained”, “myogenin-positive” for “MyoD-positive”

angiogenesis = details: Patent Literature 1, Non Patent Literature 1 and 2; compared with VEGF; cited from earlier work

Substance: SVVYGLR [SV peptide]
- cell proliferative capacity ([1]; time course within SV group): significantly increased after 24-hour treatment with the SV peptide and then reached a plateau
- cell proliferative capacity ([1]; vs PBS group or random SV group, 12 hours and thereafter): significantly higher at 12 hours post-treatment and remained significantly higher thereafter than that in the PBS group or the random SV group
- chewing side preference ([2]; postoperative weeks 1 and 8, SV peptide into left masseter, right incision only): increase in left-side chewing preference over time postoperatively
- integral of bursts in the left (administration side) masseter muscle ([2]; weeks 4, 6, and 8, relative to 1-week postoperative value = 1, SV group vs PBS group): significantly greater values than those in the PBS group
- granulation tissue area ratio (administration side / non-administration side) ([3]; HE staining): significant reduction in granulation tissue formation
- MyoD-positive ratio (administration side / non-administration side) ([3]; MyoD immunostaining, SV group vs PBS group): significant increase of MyoD-positive cells as compared with the PBS group
- myogenin-positive ratio (administration side / non-administration side) ([3]; myogenin immunostaining, SV group vs PBS group): significant increase of myogenin-positive cells as compared with the PBS group
- angiogenic activity (angiogenesis): high angiogenic activity that is comparable to that of VEGF
